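GI50 marks 50% less growth. TGI: concentration producing complete growth inhibition.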
How the values were obtained:
Assay in all cases: NCI tumour cell line growth inhibition, 384-well format
[1] = test system: SK-MEL-28 melanoma
[2] = test system: OVCAR-5 ovarian
[3] = test system: NCI-H322M lung
[4] = test system: SF-295 CNS
[5] = test system: CAKI-1 renal
[6] = test system: TK-10 renal
[7] = test system: SK-OV-3 ovarian
[8] = test system: HCT-15 colon
[9] = test system: COLO 205 colon
[10] = test system: SK-MEL-2 melanoma
[11] = test system: A498 renal
[12] = test system: MOLT-4 leukemia
[13] = test system: LOX IMVI melanoma
[14] = test system: HS 578T breast
[15] = test system: ACHN renal
[16] = test system: NCI-H522 lung
[17] = test system: MDA-MB-435 melanoma
[18] = test system: OVCAR-3 ovarian
[19] = test system: DU-145 prostate
[20] = test system: SW-620 colon
[21] = test system: MDA-MB-231 breast
[22] = test system: RXF 393 renal
[23] = test system: NCI/ADR-RES ovarian
[24] = test system: UACC-62 melanoma
[25] = test system: HCT-116 colon
[26] = test system: NCI-H460 NSCLC
[27] = test system: CCRF-CEM leukemia
[28] = test system: HOP-92 NSCLC
[29] = test system: MCF7 breast
[30] = test system: T-47D breast
[31] = test system: IGROV1 ovarian
[32] = test system: MDA-MB-468 breast
[33] = test system: KM12 colon
[34] = test system: NCI-H226 lung
[35] = test system: HOP-62 NSCLC
[36] = test system: A549 NSCLC
[37] = test system: HT29 colon
[38] = test system: 786-0 renal
[39] = test system: SK-MEL-5 melanoma
[40] = test system: SNB-19 CNS
[41] = test system: SF-268 CNS
[42] = test system: K-562 leukemia
[43] = test system: NCI-H23 lung
[44] = test system: UACC-257 melanoma
[45] = test system: M14 melanoma
[46] = test system: UO-31 renal
[47] = test system: PC-3 prostate
[48] = test system: MALME-3M melanoma
[49] = test system: EKVX NSCLC
[50] = test system: HCC-2998 colon
[51] = test system: OVCAR-8 ovarian
[52] = test system: SF-539 CNS
[53] = test system: SN12C renal
[54] = test system: HL-60(TB) leukemia
[55] = test system: BT-549 breast
[56] = test system: U251 glioblastoma
[57] = test system: RPMI-8226 leukemia
[58] = test system: OVCAR-4 ovarian

## Cc1noc(C)c1-c1cnc2c(-c3ccc(C(=O)O)cc3)cn([C@@H](C)c3ccccn3)c2c1
[1]
  GI50: 699 nM
  TGI: > 100000 nM
[2]
  GI50: 525 nM
  TGI: 27400 nM
[3]
  GI50: 619 nM
  TGI: 58400 nM
[4]
  GI50: 1460 nM
  TGI: 28900 nM
[5]
  TGI: 3460 nM
[6]
  GI50: 34.3 nM
  TGI: 989 nM
[7]
  GI50: 445 nM
  TGI: 9820 nM
[8]
  GI50: 205 nM
  TGI: 10800 nM
[9]
  GI50: 418 nM
  TGI: 6010 nM
[10]
  GI50: 46.4 nM
  TGI: 14000 nM
[11]
  GI50: 283 nM
  TGI: 2830 nM
[12]
  GI50: 103 nM
  TGI: 1470 nM
[13]
  GI50: 144 nM
  TGI: 381 nM
[14]
  GI50: 51.4 nM
  TGI: 1280 nM
[15]
  GI50: 627 nM
  TGI: 14900 nM
[16]
  GI50: 15 nM
  TGI: 391 nM
[17]
  GI50: 805 nM
  TGI: > 100000 nM
[18]
  GI50: 116 nM
  TGI: 10300 nM
[19]
  GI50: 2400 nM
  TGI: > 100000 nM
[20]
  GI50: 4750 nM
  TGI: 73900 nM
[21]
  GI50: 123 nM
  TGI: 23800 nM
[22]
  GI50: 254 nM
  TGI: 1290 nM
[23]
  GI50: 1180 nM
  TGI: 17200 nM
[24]
  GI50: 37.8 nM
  TGI: 1270 nM
[25]
  GI50: 552 nM
  TGI: 23100 nM
[26]
  GI50: 3170 nM
  TGI: > 100000 nM
[27]
  GI50: 75.8 nM
  TGI: 2790 nM
[28]
  GI50: 188 nM
  TGI: 39400 nM
[29]
  GI50: 15.9 nM
  TGI: 3130 nM
[30]
  GI50: 201 nM
  TGI: 3310 nM
[31]
  GI50: 78.7 nM
  TGI: 1980 nM
[32]
  GI50: 72.1 nM
  TGI: 919 nM
[33]
  GI50: 579 nM
  TGI: 19300 nM
[34]
  GI50: 406 nM
  TGI: 7350 nM
[35]
  GI50: 228 nM
  TGI: 9580 nM
[36]
  GI50: 755 nM
  TGI: > 100000 nM
[37]
  GI50: 301 nM
  TGI: > 100000 nM
[38]
  GI50: 147 nM
  TGI: 9250 nM
[39]
  GI50: 61.6 nM
  TGI: 3080 nM
[40]
  GI50: 554 nM
  TGI: > 100000 nM
[41]
  GI50: 1470 nM
  TGI: 27000 nM
[42]
  GI50: 173 nM
  TGI: > 100000 nM
[43]
  GI50: 366 nM
  TGI: 6370 nM
[44]
  GI50: 219 nM
  TGI: 9840 nM
[45]
  GI50: 209 nM
  TGI: 51900 nM
[46]
  GI50: 323 nM
  TGI: 13400 nM
[47]
  GI50: 467 nM
  TGI: > 100000 nM
[48]
  TGI: 1730 nM
[49]
  GI50: 2950 nM
  TGI: > 100000 nM
[50]
  GI50: 117 nM
  TGI: 1050 nM
[51]
  GI50: 234 nM
  TGI: 2390 nM
[52]
  GI50: 292 nM
  TGI: 1680 nM
[53]
  GI50: 1040 nM
  TGI: > 100000 nM
[54]
  GI50: 16.1 nM
  TGI: 142 nM
[55]
  GI50: 60.1 nM
  TGI: 761 nM
[56]
  GI50: 1770 nM
  TGI: 30100 nM
[57]
  GI50: 12 nM
  TGI: 152 nM
[58]
  GI50: 167 nM
  TGI: 739 nM

Source: PubChem BioAssay (NCI)
